Reference: patent US8765123B1, “Compositions and methods for the treatment and prevention of infections caused by Staphylococcus aureus bacteria” (Rutgers, The State University of New Jersey, priority 2007, dated 2014)
“Also recorded” adds a separate entry of the source.

Assays:
Type in all cases: cell-based, Staphylococcus aureus
[1] = system: S. aureus Strain SH1000 biofilms; experiment: Detachment of pre-formed S. aureus biofilms in microtiter plate wells, crystal violet staining
Experimental: (§1) S. aureus Strain SH1000 (Horsburgh et al., 2002. J. Bacteriol. 184:5457-5467) was used in all of the following examples. The bacteria were passaged weekly on blood agar and stored at 4° C. Biofilms were cultured in Tryptic Soy broth (Becton-Dickinson, Sparks, Md.) containing 6 g of yeast extract and 8 g of glucose per liter (TSB medium). All cultures were incubated at 37° C.
A biofilm formation assay was carried out as follows. A loopful of cells from an agar plate was transferred to a polypropylene microcentrifuge tube containing 200 μl of TSB medium. The cells were crushed with a disposable pellet pestle, vortexed for 30 sec, diluted to 1 ml in fresh TSB medium, and then passed through a 5-μm pore-size syringe filter to remove large clumps of cells as previously described (Kaplan & Fine, 2002. Appl. Environ. Microbiol. 68:4943-4950). Filtered cells were diluted to 10^3-10^5 CFU/ml in TSB medium. Aliquots of cells (200 μl each) were transferred to the wells of a 96-well tissue-culture-treated polystyrene microtiter plate (Falcon no. 324662, Becton-Dickinson) and the plate was incubated for 24 h. The biofilms were rinsed once with water and then treated with 200 μl of deoxyribonuclease I (bovine deoxyribonuclease I, purchased from Sigma Chemical Company) at 100 μg/ml in 150 mM NaCl, 1 mM CaCl2. Control biofilms were treated with 200 μl of 150 mM NaCl, 1 mM CaCl2 alone. After 10 min at 37° C., biofilms were rinsed with water and then dried. Biofilms were stained for 1 min with 200 μl of Gram's crystal violet stain (catalog no. 23255960, Fisher Scientific, Fair Lawn, N.J.) and then rinsed with water and dried.
The concentration of deoxyribonuclease I was 100 μg/ml and the treatment time was 10 min. In this case, the amount of biofilm biomass remaining in the well was quantitated by measuring the A595 of the crystal violet stained biomass as described above, and the percent of biofilm cell detachment was calculated using the formula: 1−(A595[buffer+deoxyribonuclease I]/A595[buffer alone])×100.

S. aureus SH1000 cells = experiment: Autoaggregation and biofilm formation in PET tubes with supplemented TSB medium; settings: medium supplemented with 100 μg/ml, 16 h
Experimental: as §1
These experiments were carried out as described above, except that biofilms were grown in 16-mm×100-mm PET tubes (2 ml culture vol) in a rotary shaker for 16 h.

SH1000 biofilms = experiment: Biofilm formation in 96-well microtiter plates in supplemented TSB medium, crystal violet A595
S. aureus biofilm cells = experiment: Killing of biofilm cells in microplate wells, CFU/well enumeration; settings: 24-h biofilm; deoxyribonuclease I alone, 100 μg/ml for 10 min; FIG. 8
Experimental: Biofilms were grown for 24 h in 96-well microtiter plates as described above. Biofilms were rinsed once with water and then treated with 200 μl of TSB medium containing 100 μg/ml of deoxyribonuclease I. Control wells were treated with 200 μl of TSB medium alone. […] Control wells received 20 μl of water. […] This reaction was carried out in 100 μg/ml in 150 mM NaCl, 1 mM CaCl2 as described above. After 10 min, cells were mixed and then serial dilutions were plated on agar. For S. aureus biofilms treated with deoxyribonuclease I, cells were mixed and then a 50-μl aliquot of cells was diluted in 50 ml of phosphate buffered saline. The cells were passed through an analytical test filter funnel (no. 145-2020; Nalgene, Rochester, N.Y.), and the filter was rinsed with 250 ml of sterile water, aseptically removed from the filter unit, and placed on a blood agar plate. Colonies were enumerated after 24 h.

deoxyribonuclease I
detachment of biofilm (crystal violet staining material remaining in the well) ([1]; 24-h-old biofilm, 100 μg/ml, 10 min treatment, FIG. 1): significant detachment of the biofilm; also recorded: nearly complete detachment | concentration dependence of biofilm detachment (Absorbance at 595 nm) ([1]; 24-h-old biofilm, 10 min treatment, FIG. 2): dependent on the deoxyribonuclease I concentration | detachment of biofilm (A595 of crystal violet) ([1]; 24-h-old biofilm, concentrations between 0.1 and 10 μg/ml, 10 min, FIG. 2): partial detachment | detachment of biofilm (A595 of crystal violet) ([1]; 24-h-old biofilm, concentrations greater than 10 μg/ml, 10 min, FIG. 2): near complete detachment | detachment of biofilm (A595 of crystal violet) ([1]; 24-h-old biofilm, concentrations less than 0.1 μg/ml, 10 min, FIG. 2): little detachment | detachment of biofilms of different age (percent of biofilm cell detachment from A595) ([1]; biofilms grown for 5, 8, 12 or 24 h, 100 μg/ml, 10 min, FIG. 3): capable of detaching; also recorded: significant detachment of all of the S. aureus biofilms, regardless of their age | biofilm formation in tubes at the air-liquid interface (crystal violet staining) (S. aureus SH1000 cells; FIG. 5): much less biofilm formation; also recorded: inhibited biofilm formation at the air-liquid interface | autoaggregation (clumping) of cells (S. aureus SH1000 cells; rotary shaker, FIG. 4): much less clumping; also recorded: formed smaller aggregates | inhibition of biofilm formation (A595 of crystal violet stained biomass), concentration dependence (SH1000 biofilms; increasing concentrations in medium, FIG. 7): dependent on the deoxyribonuclease I concentration; also recorded: inhibited SH1000 biofilm formation in a dose-dependent manner | biofilm colony morphology in microplate wells (SH1000 biofilms; medium supplemented with 100 μg/ml, 24 h, FIG. 6): incapable of forming distinct biofilm colonies; also recorded: formed a dense film that uniformly covered the microwell surface, but which readily detached after gentle rinsing | decrease in CFU/well values (killing of biofilm cells) (S. aureus biofilm cells): resistant to killing; also recorded: did not exhibit a significant decrease
